Entries after “also recorded” stand apart in the source; their conditions may differ. Read-outs that look alike come from different tables or passages of the source.
How the values were obtained:
PGDH mutant E129AK256A [1] = target: T1, PGDH mutant E129AK256A (Escherichia coli, UniProt P0A9T0, E129A/K256A); assay: SPR binding site verification, site I mutant E129AK256A; details: compound 1 at 50 µM, compound 2 at 25 µM
T1 construct: The PGDH coding region was ligated into the pET21a(+) vector; made in house; host or cells: E. coli BL21 (DE3)
Method: (§1) PGDH and its mutants were immobilized on a CM5 sensor chip by using standard amine-coupling at 25°C with running buffer HBS-P (20 mM […], 0.05% surfactant P-20, pH 7.4), respectively. […] A reference flow cell was activated and blocked in the absence of PGDH. […] Regeneration was achieved by extended washing with the running buffer after each sample injection. […] In the binding site verification SPR experiments, the sensor chip surface was immobilized with WT PGDH and its mutants to a RU of 4000, respectively. The analytes, compounds 1 and 2, were injected over the chip at a fixed concentration of 50 and 25 µM, respectively.
(§2) We also tested whether compounds 1 and 2 might interact with the other allosteric site (site II) we discovered before. The key binding residue in site II, Y410 was mutated to A. The binding of these two compounds with the wild type enzyme, Y410A, and two site I mutants (F147A, E129AK256A) were tested using SPR direct binding assay. The immobilization levels for WT, Y410A, F147A and E129AK256A were kept almost the same (3506, 3792, 3756 and 3600 RU, respectively) and the concentrations of compounds 1 and 2 were kept at 50 µM and 25 µM. […] This verified that both compounds 1 and 2 bind specifically to the site I as designed.

PGDH mutant S146A = target: T2, PGDH mutant S146A (Escherichia coli, UniProt P0A9T0, S146A); assay: PGDH enzyme assay, mutant S146A; type: biochemical
T2 construct: The PGDH coding region was ligated into the pET21a(+) vector; made in house; host or cells: E. coli BL21 (DE3)
Method: (§3) To evaluate the effects of compounds on PGDH activity, compounds were first examined to have no fluorescence absorption at 456 nm, and then pre-incubated with enzyme samples in the assay buffer (20 mM tris-(hydroxymethyl) aminomethane hydrochloride (Tris-HCl), pH 7.5, 1 mM DTT, 1 mM EDTA, and 0.25 mM NADH) for 6 min at 25°C. […] Fluorescence signals were recorded for 3 min with a kinetics mode program. The cofactor concentration in the assay buffer was 0.25 mM and the substrate concentration was 5 mM [28]. IC50 or AC50 values were obtained by fitting the data to a three-parameter Hill model of the graph of log dose against percentage inhibition or activation from at least three sets of experiments. Percentages of inhibition or activation were calculated according to the following equation: [drawing 1] in which Vo and Vi represent the maximum reaction rate of the enzyme incubated without or with compounds and Vn represents the maximum degradation rate of NADH.
(§4) All mutagenesis experiments were carried out according to the instructions of the QuikChange site-directed mutagenesis (Stratagene). The plasmid pET-21a(+)-containing wild-type (WT) PGDH was mutated to obtain the mutants E129A, S146A, F147A, K256A, K152AK230A, and E129AK256A. The DNA sequences of all mutants were verified by DNA sequencing. […]

PGDH (WT) = target: T3, PGDH (WT) (Escherichia coli, UniProt P0A9T0); assay: SPR direct binding to immobilized PGDH
T3 construct: The PGDH coding region was ligated into the pET21a(+) vector; made in house; host or cells: E. coli BL21 (DE3)
Method: as §1

PGDH mutant F147A [2] = target: T4, PGDH mutant F147A (Escherichia coli, UniProt P0A9T0, F147A); assay: PGDH enzyme assay, mutant F147A; type: biochemical
T4 construct: The PGDH coding region was ligated into the pET21a(+) vector; made in house; host or cells: E. coli BL21 (DE3)
Method: as §3, §4

PGDH [3] = target: T5, PGDH (Escherichia coli, UniProt P0A9T0); assay: Serine-compound competition experiment; type: biochemical; details: compound 40 µM; serine 1.6 to 200 µM
T5 construct: The PGDH coding region was ligated into the pET21a(+) vector; made in house; host or cells: E. coli BL21 (DE3)
Method: Serine-compound competition experiment
Serine-compound competition experiments were did like that for compound-substrate experiments, before the reaction was started, the enzyme was pre-incubated with the mixture of serine and compound for 6 minutes. During this process, compound was kept at a constant inhibitory concentration, and the serine concentrations were changed from 1.6 to 200
μM. The concentrations of compounds 1 and 2 were selected as 40 μM. […]

PGDH [4] = target: T5, PGDH; assay: Compound-substrate competition experiments; type: biochemical; details: for competition with the substrate: constant compound concentration, increasing α-ketoglutarate; for inhibition at 50 µM: substrate increased from 156 µM to 10 mM, compound 50 µM, read-out: percentage of inhibition with increasing substrate
Method: To investigate competition effects between the compounds and the substrate α-ketoglutarate, we performed compound-substrate competition experiments as follows:
Before α-ketoglutarate was added to start the reaction, the enzyme sample was pre-incubated with the cofactor and the compound for 6 min at 25°C. […] The cofactor NADH concentration was kept constant at 0.25 mM. […]
Serine-compound competition experiment […]
Competition experiments for analogs and the substrate
1-3 were kept at 92, 100, and 120 μM, while gradually increasing the substrate
concentration from 78 μM to 625 μM. […]

PGDH mutant Y410A = target: T6, PGDH mutant Y410A (Escherichia coli, UniProt P0A9T0, Y410A); assay: SPR binding site verification, site II mutant Y410A; details: compound 1 at 50 µM, compound 2 at 25 µM
T6 construct: The PGDH coding region was ligated into the pET21a(+) vector; made in house
Method: as §1, §2

PGDH mutant F147A [5] = target: T4, PGDH mutant F147A; assay: SPR binding site verification, site I mutant F147A; details: compound 1 at 50 µM, compound 2 at 25 µM
Method: as §1, §2

E. coli PGDH (wild type) = target: T7, E. coli PGDH (wild type) (Escherichia coli, UniProt P0A9T0); assay: PGDH enzyme assay (NADH fluorescence, α-ketoglutarate substrate), wild type; type: biochemical; details: for inhibition at 50 µM: compound 50 µM; for maximum enzyme activity (residual activity, activation): low compound concentration, >100% = activation
T7 construct: The PGDH coding region was ligated into the pET21a(+) vector; made in house; host or cells: E. coli BL21 (DE3)
Method: as §3

PGDH mutant K152AK230A = target: T8, PGDH mutant K152AK230A (Escherichia coli, UniProt P0A9T0, K152A/K230A); assay: PGDH enzyme assay, mutant K152AK230A; type: biochemical
T8 construct: The PGDH coding region was ligated into the pET21a(+) vector; made in house; host or cells: E. coli BL21 (DE3)
Method: as §3, §4

PGDH [6] = target: T5, PGDH; assay: Enzyme kinetic analysis (Michaelis-Menten); type: biochemical; details: compound 0 to 120 µM
Method: As in the competition experiments, enzyme reaction velocity vs. substrate relationships were measured at various compound concentrations. The compound concentrations used were 120, 80, 40, 24, 8, 4.8, 1.6, and 0.32 µM.
To evaluate the effects of the compounds on enzyme kinetics, Michaelis-Menten plots of PGDH incubated with different concentrations of compounds were measured. The apparent kinetic parameters kcat and Km were estimated by non-linear curve-fitting using Graphpad Prism 5.0 software, and their values are shown in Figure 6. […] The kcat of the pure enzyme was about 2.6 s^−1, which was in between the kcat values of the enzyme at the molecular concentrations of 8 µM and 24 µM.

PGDH mutant E129A = target: T9, PGDH mutant E129A (Escherichia coli, UniProt P0A9T0, E129A); assay: PGDH enzyme assay, mutant E129A; type: biochemical
T9 construct: The PGDH coding region was ligated into the pET21a(+) vector; made in house; host or cells: E. coli BL21 (DE3)
Method: as §3, §4

PGDH mutant K256A = target: T10, PGDH mutant K256A (Escherichia coli, UniProt P0A9T0, K256A); assay: PGDH enzyme assay, mutant K256A; type: biochemical
T10 construct: The PGDH coding region was ligated into the pET21a(+) vector; made in house; host or cells: E. coli BL21 (DE3)
Method: as §3, §4

PGDH mutant E129AK256A [7] = target: T1, PGDH mutant E129AK256A; assay: PGDH enzyme assay, mutant E129AK256A; type: biochemical
Method: as §3, §4

PGDH from pea = details: PGDH from peas, cited from earlier work
[8] = wild type PGDH, substrate 5 mM, NADH 0.25 mM, read-out: IC50

Compound | compound binding ability to E129AK256A versus WT (PGDH mutant E129AK256A [1]) | IC50 (PGDH mutant F147A [2]) | influence on the inhibitory ability of serine (PGDH [3]) | competition with the substrate (PGDH [4]) | inhibition at 50 µM (PGDH [4]) | compound binding ability to Y410A versus WT (PGDH mutant Y410A) | compound binding ability to F147A versus WT (PGDH mutant F147A [5]) | inhibition at 50 µM (E. coli PGDH (wild type); substrate 5 mM) | maximum enzyme activity (residual activity, activation) (E. coli PGDH (wild type); substrate 5 mM) | concentration above which the compound is an inhibitor (E. coli PGDH (wild type); substrate 5 mM) | effect on Km / substrate affinity of the enzyme (PGDH [6]) | IC50 (E. coli PGDH (wild type); [8]) | further results
O=C1NC(=S)NC(=O)C1=Cc1ccc(OC(=O)c2ccc3nc(-c4ccccc4)c(-c4ccccc4)nc3c2)cc1 [Compound 1] | a large decrease in compound binding ability | 181 ± 26 µM | no significant effect; also recorded: not significantly influenced | do not competitively bind to the same site | 20 to 50% | retained the same extent of compound binding ability as WT | a large decrease in compound binding ability | ~50% | about 140% | > 16 µM | enhanced the substrate affinity for the enzyme |  | IC50 (PGDH mutant S146A): 175 ± 88 µM; Kd (PGDH (WT)): 42.6 ± 2.1 µM; IC50 (E. coli PGDH (wild type)): 34.8 ± 1.3 µM; IC50 (PGDH mutant K152AK230A): > 200 µM
Cc1ccc(N2NC(=O)/C(=C/c3ccc(-c4ccc(S(=O)(=O)Nc5nccs5)cc4)o3)C2=O)cc1C [Compound 2] | a large decrease in compound binding ability | 158 ± 22 µM | no significant effect; also recorded: not significantly influenced | do not competitively bind to the same site | 20 to 50% | retained the same extent of compound binding ability as WT | a large decrease in compound binding ability | ~50% | 163% | above 1.6 µM | enhanced the substrate affinity for the enzyme | 58 ± 9 µM | Kd (PGDH (WT); SPR, 1:1 Langmuir binding model, PGDH 800 RU, read-out: KD): 19 ± 1.9 µM; IC50 (PGDH mutant E129A): 99 ± 13 µM; AC50 (E. coli PGDH (wild type); fit of activation dose response curve, substrate 5 mM): 34.7 nM; concentration at which activation starts (E. coli PGDH (wild type); substrate 5 mM): about 2 nM; concentration of highest activation (E. coli PGDH (wild type); substrate 5 mM): about 64 nM; IC50 (PGDH mutant K256A): > 200 µM; IC50 (PGDH mutant E129AK256A [7]): > 200 µM
Cc1ccccc1C(=O)Nc1ccccc1C(=O)N/N=C/c1ccccc1OCc1ccccc1[N+](=O)[O-] [Compound 3] |  |  |  | percentage inhibition did not change |  |  |  |  |  |  |  | 131 ± 12 µM | SPR binding ability (PGDH (WT); no reliable KD obtained): weak binding ability; inhibition at 130 µM (E. coli PGDH (wild type); compound 130 µM, substrate 5 mM): ~50%; maximal inhibition rate (E. coli PGDH (wild type); partial dose-inhibition curve due to solubility restriction): 61.9%
CSCC[C@H](N)C(=O)O [L-methionine] |  |  |  |  |  |  |  |  |  |  |  |  | increase in enzyme activity (PGDH from pea; at maximal activation): four- to five; concentration of maximal activation (PGDH from pea): 10 mM

From paper PMC3986399, “Discovery of Novel Allosteric Effectors Based on the Predicted Allosteric Sites for Escherichia coli D-3-Phosphoglycerate Dehydrogenase” (PLoS ONE, 2014)
